Ten compounds from ChEMBL document CHEMBL1201862, “PubChem BioAssay data set” (2004) can be followed below.

SMILES strings stand for the structures.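 96-well plates; 48 h exposure; 5 concentrations. Endpoints by linear interpolation between flanking doses. Not reached: highest tested concentration assigned. GI50 = concentration required for 50% inhibition of growth.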 Activity calls are given as the source filed them. Cut-off read from the data, not from the text of the source: active = GI50 up to about 1.1 µM and inactive = higher.

Some test systems named below: OVCAR-8; SK-MEL-5; A549; Hs-578T; PC-3; SNB-19; TK-10; T47D; EKVX; SR; RXF 393; SF-268; MDA-MB-435; UACC-62; HOP-92; SK-MEL-2; HOP-62; SN12C; ACHN; BT-549.
Common to all, as to test: NCI anticancer screen, dose series, 48 h

Turning to `O=C(Oc1ccccc1)c1cc2cc(CCl)ccc2oc1=O`, the GI50 in the test with OVCAR-8 is 47.2 µM (inactive); in the test with SK-MEL-5 it was 12.8 µM (inactive); with A549, 25.8 µM (inactive); in the test with Hs-578T it was 16.9 µM (inactive); in the test with PC-3, 14.2 µM (inactive); in the test on SNB-19 it was 71.6 µM (inactive). The GI50 with TK-10 was 17.5 µM (inactive); with T47D, 15.6 µM (inactive); in the test on EKVX, 17.6 µM (inactive); in the test with SR, 28.1 µM (inactive); in the test with RXF 393, 13.5 µM (inactive); in the test on SF-268, 23.2 µM (inactive). Moreover, the GI50 was 19.4 µM (inactive) with MDA-MB-435; 13.4 µM (inactive) in the test with UACC-62; 14.7 µM (inactive) in the test on HOP-92; 3.17 µM (inactive) in the test on SK-MEL-2; 26.5 µM (inactive) with HOP-62; 23.1 µM (inactive) in the test with SN12C. Further, the GI50 in the test with ACHN was 8.99 µM (inactive); in the test on BT-549, 64.3 µM (inactive).

Turning to `NC(=O)C(c1ccccc1)N1OC2C(=O)N(Cc3ccccc3)C(=O)C2C1c1cccc(Oc2ccc(Cl)cc2)c1` (centres undefined), the GI50 was 39.7 µM (inactive) in the test on OVCAR-8; 15.9 µM (inactive) with SK-MEL-5; 31.4 µM (inactive) with A549; 49.1 µM (inactive) with Hs-578T; 33.4 µM (inactive) with PC-3; 37.1 µM (inactive) in the test with SNB-19. Besides, the GI50 in the test on TK-10 was 30.9 µM (inactive); in the test on T47D, 32.1 µM (inactive); in the test with EKVX, 27.1 µM (inactive); in the test on SR it was 22.7 µM (inactive); in the test on RXF 393, 17.5 µM (inactive); in the test with SF-268, 35.8 µM (inactive). Also, the GI50 in the test on MDA-MB-435 is 27 µM (inactive); in the test on UACC-62, 15.8 µM (inactive); with HOP-92, 33 µM (inactive); in the test on SK-MEL-2 it was 22.2 µM (inactive); with HOP-62, 42.1 µM (inactive); with SN12C it was 16.4 µM (inactive). For the same compound, the GI50 in the test with ACHN is 20.4 µM (inactive); in the test on BT-549 it was 34 µM (inactive).

Take `O=C(O)C1CCCN1Cc1c[nH]c2ccccc12` (centres undefined): the GI50 in the test on OVCAR-8, in the test on SK-MEL-5, in the test with A549, in the test on Hs-578T, with PC-3 and in the test on SNB-19 was > 100 µM (inactive) in each case. In addition, the GI50 with TK-10, in the test with T47D, with EKVX, in the test on SR, in the test on RXF 393 and with SF-268 was > 100 µM (inactive) throughout. The GI50 in the test on MDA-MB-435, in the test on UACC-62, in the test with HOP-92, in the test on SK-MEL-2, with HOP-62 and in the test with SN12C was > 100 µM (inactive) each time. Also, the GI50 in the test on ACHN and with BT-549 was > 100 µM (inactive) in each case.

As to `O=C1c2ccccc2C(=O)c2c(/C=C\N3CCCCC3)ccnc21`, the GI50 is 2.15 µM (inactive) in the test with OVCAR-8; 0.42 µM (active) in the test on SK-MEL-5; 2.12 µM (inactive) in the test with A549; 1.23 µM (inactive) with Hs-578T; 0.879 µM (active) in the test with PC-3; 4.91 µM (inactive) with SNB-19. Moreover, the GI50 in the test on TK-10 is 15.2 µM (inactive); in the test with T47D it was 2.97 µM (inactive); with EKVX, 15.2 µM (inactive); with SR it was 8.36 µM (inactive); with RXF 393 it was 8.53 µM (inactive); in the test with SF-268, 12 µM (inactive). Further, the GI50 was 0.327 µM (active) with MDA-MB-435; 0.659 µM (active) in the test on UACC-62; 9.18 µM (inactive) with HOP-92; 3.72 µM (inactive) in the test on SK-MEL-2; 3.81 µM (inactive) in the test with HOP-62; 1.4 µM (inactive) in the test with SN12C. Further, the values for the GI50 in the test on ACHN and in the test with BT-549 were 5.69 µM (inactive) and 0.889 µM (active), respectively.

Take `Cc1c(-c2ccccc2)c(C#N)c2nnn(C3CCCCC3)c(=O)n12`: the GI50 in the test on OVCAR-8 is 44 µM (inactive); in the test on SK-MEL-5, 72.4 µM (inactive); with A549, 83.4 µM (inactive); with Hs-578T, 97.9 µM (inactive); in the test with PC-3, 20.2 µM (inactive); in the test on SNB-19, 66.5 µM (inactive). The GI50 with TK-10 was > 100 µM (inactive); in the test on T47D, > 100 µM (inactive); in the test with EKVX it was 37 µM (inactive); in the test on SR, 24.8 µM (inactive); in the test on RXF 393, 19.8 µM (inactive); in the test on SF-268, > 100 µM (inactive). The GI50 in the test with MDA-MB-435 is > 100 µM (inactive); in the test with UACC-62, > 100 µM (inactive); in the test on HOP-92, 24 µM (inactive); with SK-MEL-2, 31.6 µM (inactive); in the test with HOP-62, 14.7 µM (inactive); with SN12C it was 98.2 µM (inactive). Moreover, the GI50 was 50.5 µM (inactive) with ACHN and > 100 µM (inactive) in the test on BT-549.

On to `N#Cc1c(N2CCCC2)ncn(Cc2ccccc2)c1=O`, for which the GI50 with OVCAR-8, in the test on SK-MEL-5, in the test with A549, in the test on Hs-578T, with PC-3 and with SNB-19 was > 100 µM (inactive) throughout. Moreover, the GI50 in the test with TK-10, in the test with T47D, with EKVX, with SR, with RXF 393 and with SF-268 was > 100 µM (inactive) each time. Moreover, the GI50 with MDA-MB-435, with UACC-62, in the test on HOP-92, with SK-MEL-2, with HOP-62 and in the test on SN12C was > 100 µM (inactive) throughout. Further, the GI50 with ACHN and with BT-549 was > 100 µM (inactive) throughout.

For the compound `CCCCc1ccc(-n2sc3ncc(C)cc3c2=O)cc1`, the GI50 in the test with OVCAR-8 was 21 µM (inactive); with SK-MEL-5, 21.5 µM (inactive); in the test on A549 it was 20.6 µM (inactive); with Hs-578T, > 100 µM (inactive); with PC-3, 15 µM (inactive); with SNB-19, > 100 µM (inactive). Further, the GI50 is 29.1 µM (inactive) in the test on TK-10; 22.6 µM (inactive) with T47D; 19.5 µM (inactive) in the test on EKVX; 75.5 µM (inactive) in the test with SR; 27.2 µM (inactive) in the test with RXF 393; 79.8 µM (inactive) in the test with MDA-MB-435. Further, the GI50 with UACC-62 is 32.4 µM (inactive); with HOP-92, 26.8 µM (inactive); in the test with SK-MEL-2 it was 10.6 µM (inactive); in the test on HOP-62, 30.3 µM (inactive); in the test on SN12C it was 21.9 µM (inactive); with ACHN it was 30.9 µM (inactive). Moreover, in the test with BT-549, the GI50 is 19.1 µM (inactive).

Take `CC(=O)O[C@H]1C(=O)[C@@]2(C)[C@H]([C@H](OC(=O)c3ccccc3)[C@]3(O)C[C@H](OC(=O)[C@H](O)[C@@H](NC(=O)C(C)(O)C(C)O)c4ccccc4)C(C)=C1C3(C)C)[C@]1(OC(C)=O)CO[C@@H]1C[C@@H]2O` (some centres undefined): the GI50 in the test with OVCAR-8 was 1.42 µM (inactive); in the test with SK-MEL-5, 0.207 µM (active); in the test with A549, 0.573 µM (active); in the test on Hs-578T, 0.0964 µM (active); in the test with PC-3, 0.226 µM (active); in the test on SNB-19 it was 0.796 µM (active). Besides, the GI50 was 5.69 µM (inactive) in the test with TK-10; 0.929 µM (active) in the test on T47D; > 50 µM (inactive) in the test with EKVX; 0.133 µM (active) in the test with SR; 0.316 µM (active) in the test on RXF 393; 0.31 µM (active) with SF-268. For the same compound, the GI50 was 0.0352 µM (active) in the test with MDA-MB-435; 0.242 µM (active) in the test on UACC-62; 0.44 µM (active) with HOP-92; 0.124 µM (active) with SK-MEL-2; 0.282 µM (active) with HOP-62; 0.485 µM (active) in the test on SN12C. For the same compound, the GI50 in the test with ACHN was 14.4 µM (inactive); in the test with BT-549 it was 0.142 µM (active).

Consider `NS(=O)(=O)c1ccc(/N=N/c2cnc(O)c(O)c2)cc1`, for which the GI50 was 76.2 µM (inactive) in the test on OVCAR-8; 78.2 µM (inactive) in the test with SK-MEL-5; > 100 µM (inactive) in the test on A549; 66.1 µM (inactive) in the test with Hs-578T; > 100 µM (inactive) in the test with PC-3; 52.4 µM (inactive) in the test on SNB-19. For the same compound, the GI50 in the test with TK-10 is > 100 µM (inactive); in the test on T47D it was 85.7 µM (inactive); in the test with EKVX it was > 100 µM (inactive); in the test on SR, 29.6 µM (inactive); with RXF 393, 95.3 µM (inactive); in the test with SF-268 it was 43.2 µM (inactive). Besides, the GI50 is > 100 µM (inactive) in the test on MDA-MB-435; 43.1 µM (inactive) in the test with UACC-62; 81.7 µM (inactive) in the test on HOP-92; 52 µM (inactive) in the test on SK-MEL-2; > 100 µM (inactive) in the test with HOP-62; 51.9 µM (inactive) in the test with SN12C. In addition, the figures for the GI50 with ACHN and in the test on BT-549 were > 100 µM (inactive) and 42.5 µM (inactive), respectively.

As for `CCN(CC)/[N+]([O-])=N/OCOC(C)=O`, the GI50 in the test on OVCAR-8, in the test with SK-MEL-5, in the test on A549, with Hs-578T, with PC-3 and in the test on SNB-19 was > 100 µM (inactive) in each case. For the same compound, the GI50 in the test with TK-10 is > 100 µM (inactive); with T47D it was > 100 µM (inactive); in the test on EKVX it was > 100 µM (inactive); with SR, 43.4 µM (inactive); with RXF 393, > 100 µM (inactive); in the test on SF-268, > 100 µM (inactive). For the same compound, the GI50 in the test on MDA-MB-435, in the test on UACC-62, in the test on HOP-92, with SK-MEL-2, with HOP-62 and in the test with SN12C was > 100 µM (inactive) throughout. For the same compound, the GI50 in the test with ACHN and in the test with BT-549 was > 100 µM (inactive) throughout.
